We go through 15 molecules from PubChem BioAssay (NCI).

What all share (assay): growth of human tumour cells (NCI), 48 h
For assay [1], the system named is NCI-H460 lung.
The test system of assay [2] is SK-MEL-2 melanoma.
The subject of assay [3] is HOP-92 NSCLC.
Assay [4] relates to U251 CNS.
The test system of assay [5] is K-562 leukemia.
In assay [6] the test system is SF-268 CNS.
Assay [7] concerns SK-MEL-5 melanoma.
The subject of assay [8] is NCI-H226 lung.
Assay [9] deals with COLO 205 colon.
Assay [10] concerns NCI-H23 lung.

SMILES strings stand for the structures.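 Cultured in 96-well plates, cells were exposed to test compound for 48 hours across five concentrations. GI50 is the concentration that inhibits growth by half. TGI: total growth inhibition.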 Some results are limits rather than exact numbers.

In the case of `COc1ccc(/C=C/c2cc(O)cc(OC3OC(CO)C(O)C(O)C3O)c2)cc1O` (stereo not given), the TGI in [1], in assay [2], in assay [3], in assay [4], in assay [5] and in [6] was more than 100 µM each time. For the same molecule, the TGI in assay [7], in assay [8] and in assay [9] was more than 100 µM in each case.

As to `Nc1ccc(C2(c3ccc(N)cc3)C3CC4CC(C3)CC2C4)cc1`, the TGI in assay [10] came to 28.7 µM; in assay [2], 34.8 µM; in assay [3], 28.5 µM; in [4], 37 µM; in assay [5] it was 47.4 µM; in assay [6], 27.3 µM. In assay [8], this molecule registered a TGI of 45.1 µM.

Regarding `O=C(N[C@H](CO)[C@H](O)c1ccc([N+](=O)[O-])cc1)C(Cl)Cl`, the TGI in assay [1], in assay [10], in assay [2], in assay [3], in [4] and in assay [5] was more than 100 µM in each case. In addition, the TGI in assay [6], in [7], in assay [8] and in assay [9] was more than 100 µM throughout.

As for `OCC1NC(CO)C(O)C1O` (stereo not given), the TGI in [1], in [10], in [2], in assay [3], in [4] and in assay [5] was more than 100 µM in each case. The TGI in assay [7], in assay [8] and in assay [9] was more than 100 µM each time.

For the molecule `COc1ncnc2c(Cl)c(C(O)c3ccccc3)c(Cl)cc12` (stereo not given), the TGI was more than 100 µM in assay [1]; more than 100 µM in assay [10]; more than 100 µM in [2]; 65.4 µM in assay [3]; more than 100 µM in [4]; 69.3 µM in assay [5]. In addition, the TGI in assay [6] is 57.7 µM; in assay [7], more than 100 µM; in [9] it was more than 100 µM.

Consider `CCOP(=O)(OCC)C(Cc1c[nH]c2ccccc12)C(=O)O` (stereo not given), for which the TGI in assay [1], in assay [10], in assay [2], in assay [3], in [4] and in assay [5] was more than 100 µM throughout. The TGI in assay [7], in [8] and in assay [9] was more than 100 µM throughout.

Turning to `O=S1(=O)C[C@H](NCc2ccccc2)[C@H](NCc2ccccc2)C1`, the TGI in assay [1], in assay [10], in assay [2], in assay [3], in assay [4] and in assay [5] was more than 100 µM throughout. In addition, the TGI in assay [6], in assay [7], in [8] and in assay [9] was more than 100 µM throughout.

For `O=Nn1c2ccccc2c2ccccc21`, the TGI in assay [1], in assay [10], in assay [2], in assay [3], in assay [4] and in assay [5] was more than 100 µM each time. In addition, the TGI in assay [6] was more than 100 µM; in assay [7], more than 100 µM; in assay [8], more than 100 µM; in [9], 33.2 µM.

Take `CC(C)N(CCNc1nc(C(Cl)(Cl)Cl)nc2cc(Cl)ccc12)C(C)C`: the GI50 in [1] was 1.13 µM; in assay [10], 1.61 µM; in assay [2] it was 1.76 µM; in [3], 1.01 µM; in assay [4], 1.21 µM; in [6], 1.97 µM. Also, the GI50 is 1.56 µM in assay [7], 1.68 µM in assay [8] and 1.8 µM in assay [9]. Further, the TGI in [1] turned out to be 2.6 µM; in assay [10], 3.47 µM; in assay [2], 3.63 µM; in assay [3], 3.17 µM; in [4], 2.53 µM; in assay [6] it was 4.44 µM. In addition, the TGI in assay [7] is 2.93 µM; in assay [8] it was 3.57 µM; in assay [9], 3.61 µM.

On to `CCOC(=O)CCCc1cc(=O)c2c(C)c3[nH]c4ccc(Cl)cc4c3c(C)c2[nH]1`, for which the TGI was 32.7 µM in assay [1]; more than 100 µM in assay [10]; 71.8 µM in assay [2]; 68.2 µM in assay [3]; 50.5 µM in assay [4]; 79.6 µM in assay [5]. Also, the TGI in assay [6] was 54 µM; in [7], 49.2 µM; in assay [8], 61 µM; in [9], more than 100 µM.

For the molecule `Fc1ccc(C2CC(c3cccc(Nc4ccncc4)c3)=NN2c2ccccc2)cc1` (stereo not given), the GI50 in assay [1] was 1.76 µM; in assay [10], 1.75 µM; in [3], 1.33 µM; in [4], 1.84 µM; in assay [5], 2.42 µM; in [6], 1.75 µM. Besides, the figures for the GI50 in [7], in assay [8] and in [9] were 1.78 µM, 2.48 µM and 2.35 µM, respectively. Besides, the TGI in [1] is 3.19 µM; in [10], 3.33 µM; in assay [3], 2.73 µM; in [4], 3.64 µM; in assay [5], 6.86 µM; in assay [6], 3.4 µM. For the same molecule, the TGI in assay [7] was found to be 3.22 µM; in assay [8], 8.78 µM; in assay [9], 4.91 µM.

With `CC=C/C=C/[C@@H]1O[C@](O)([C@H](CC)C(=O)NC/C=C/C=C(\C)[C@@H](OC)[C@@H](C)[C@@H]2O[C@H](/C=C/C=C/C=C(\C)C(=O)c3c(O)cc[nH]c3=O)[C@H](O)[C@@H]2O)[C@H](O)[C@H](O)C1(C)C`, the TGI in [1], in assay [10], in [2], in assay [3], in [4] and in assay [5] was more than 100 µM in each case. This molecule also returned a TGI in assay [6] of more than 100 µM.

`O=C(Nc1ccc(C(F)(F)F)cc1[N+](=O)[O-])C(=O)Nn1c(=S)[nH]c2ccccc2c1=O`: the TGI in assay [1], in assay [10], in assay [2], in assay [3], in [4] and in assay [5] was more than 100 µM throughout. Besides, the TGI in assay [6], in [7], in [8] and in assay [9] was more than 100 µM each time.

For `Cc1ccc(S(=O)(=O)NCCCSCCN)cc1`, the TGI in assay [1], in assay [10], in assay [3], in assay [4], in [5] and in assay [6] was more than 100 µM in each case. Further, the TGI in assay [7], in assay [8] and in assay [9] was more than 100 µM in each case.

Take `Nc1nc(N)c(N=Nc2ccccc2)c(=O)[nH]1`: the TGI in [1] is more than 100 µM; in assay [10], 93 µM; in assay [2] it was more than 100 µM; in [3] it was more than 100 µM; in assay [4], more than 100 µM; in [5], more than 100 µM. The TGI in assay [6], in assay [7], in [8] and in assay [9] was more than 100 µM throughout.
